Measurements: ChEMBL document CHEMBL4649986, “Chemical probes and inhibitors of bromodomains outside the BET family” (Medchemcomm, 2016)

Legend:
[1] = target: Histone-lysine N-methyltransferase 2A (Homo sapiens) (UniProt Q03164); settings: Compound concentration 10.0 uM, Protein concentration 2.0 uM
[2] = target: Transcription initiation factor TFIID subunit 1-like (Homo sapiens) (UniProt Q8IZX4); settings: Compound concentration 10.0 uM, Protein concentration 2.0 uM
[3] = target: Histone-lysine N-methyltransferase ASH1L (Homo sapiens) (UniProt Q9NR48); settings: Compound concentration 10.0 uM, Protein concentration 2.0 uM
[4] = target: Protein polybromo-1 (Homo sapiens) (UniProt Q86U86); settings: Compound concentration 10.0 uM, Protein concentration 2.0 uM
Sequence of Protein polybromo-1 (Homo sapiens) (Q86U86 whole entry, the tested form may be a part): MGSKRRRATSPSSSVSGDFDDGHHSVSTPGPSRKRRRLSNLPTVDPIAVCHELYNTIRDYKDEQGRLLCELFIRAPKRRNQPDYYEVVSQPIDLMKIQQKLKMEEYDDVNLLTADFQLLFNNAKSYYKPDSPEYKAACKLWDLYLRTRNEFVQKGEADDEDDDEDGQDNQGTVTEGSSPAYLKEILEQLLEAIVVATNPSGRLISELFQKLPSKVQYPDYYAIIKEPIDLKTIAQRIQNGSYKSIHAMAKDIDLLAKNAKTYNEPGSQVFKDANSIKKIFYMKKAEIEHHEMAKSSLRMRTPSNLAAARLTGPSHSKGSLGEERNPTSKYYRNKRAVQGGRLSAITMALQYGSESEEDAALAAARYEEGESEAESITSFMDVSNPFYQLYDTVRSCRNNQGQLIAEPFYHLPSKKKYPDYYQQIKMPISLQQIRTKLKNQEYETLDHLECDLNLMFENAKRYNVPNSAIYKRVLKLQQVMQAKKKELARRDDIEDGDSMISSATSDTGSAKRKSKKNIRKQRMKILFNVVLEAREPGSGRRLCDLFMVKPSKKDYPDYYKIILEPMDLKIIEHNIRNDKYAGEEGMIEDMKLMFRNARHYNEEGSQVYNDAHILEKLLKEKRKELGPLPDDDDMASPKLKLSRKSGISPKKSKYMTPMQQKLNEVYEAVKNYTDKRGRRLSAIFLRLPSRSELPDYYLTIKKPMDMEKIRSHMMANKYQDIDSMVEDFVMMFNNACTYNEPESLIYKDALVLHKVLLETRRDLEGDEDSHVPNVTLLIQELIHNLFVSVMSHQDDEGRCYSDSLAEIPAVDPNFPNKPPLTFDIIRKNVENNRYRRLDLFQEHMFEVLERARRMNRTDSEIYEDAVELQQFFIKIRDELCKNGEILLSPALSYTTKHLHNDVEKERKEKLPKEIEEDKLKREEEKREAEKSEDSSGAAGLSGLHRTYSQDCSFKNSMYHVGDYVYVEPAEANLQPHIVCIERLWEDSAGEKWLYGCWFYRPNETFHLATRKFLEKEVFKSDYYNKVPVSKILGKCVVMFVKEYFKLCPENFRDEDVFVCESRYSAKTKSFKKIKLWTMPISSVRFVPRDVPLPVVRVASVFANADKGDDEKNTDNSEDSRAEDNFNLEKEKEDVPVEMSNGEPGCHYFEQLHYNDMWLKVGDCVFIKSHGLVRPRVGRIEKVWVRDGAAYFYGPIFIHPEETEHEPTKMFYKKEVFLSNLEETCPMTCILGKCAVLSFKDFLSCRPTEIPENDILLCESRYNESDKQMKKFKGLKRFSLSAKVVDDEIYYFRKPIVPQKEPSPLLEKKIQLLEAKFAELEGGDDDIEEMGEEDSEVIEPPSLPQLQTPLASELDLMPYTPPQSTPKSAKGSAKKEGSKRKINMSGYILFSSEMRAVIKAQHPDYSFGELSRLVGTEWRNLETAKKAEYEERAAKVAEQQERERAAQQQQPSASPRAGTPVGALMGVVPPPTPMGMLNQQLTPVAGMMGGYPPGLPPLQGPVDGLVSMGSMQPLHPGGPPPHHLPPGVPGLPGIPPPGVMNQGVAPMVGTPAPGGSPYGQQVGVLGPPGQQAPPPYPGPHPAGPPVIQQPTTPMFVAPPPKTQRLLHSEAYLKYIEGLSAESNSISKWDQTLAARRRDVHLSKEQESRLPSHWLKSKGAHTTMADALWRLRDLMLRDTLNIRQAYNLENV

[5] = target: Transcription initiation factor TFIID subunit 1 (Homo sapiens) (UniProt P21675); settings: Compound concentration 10.0 uM, Protein concentration 2.0 uM
Sequence of Transcription initiation factor TFIID subunit 1 (Homo sapiens) (P21675 whole entry): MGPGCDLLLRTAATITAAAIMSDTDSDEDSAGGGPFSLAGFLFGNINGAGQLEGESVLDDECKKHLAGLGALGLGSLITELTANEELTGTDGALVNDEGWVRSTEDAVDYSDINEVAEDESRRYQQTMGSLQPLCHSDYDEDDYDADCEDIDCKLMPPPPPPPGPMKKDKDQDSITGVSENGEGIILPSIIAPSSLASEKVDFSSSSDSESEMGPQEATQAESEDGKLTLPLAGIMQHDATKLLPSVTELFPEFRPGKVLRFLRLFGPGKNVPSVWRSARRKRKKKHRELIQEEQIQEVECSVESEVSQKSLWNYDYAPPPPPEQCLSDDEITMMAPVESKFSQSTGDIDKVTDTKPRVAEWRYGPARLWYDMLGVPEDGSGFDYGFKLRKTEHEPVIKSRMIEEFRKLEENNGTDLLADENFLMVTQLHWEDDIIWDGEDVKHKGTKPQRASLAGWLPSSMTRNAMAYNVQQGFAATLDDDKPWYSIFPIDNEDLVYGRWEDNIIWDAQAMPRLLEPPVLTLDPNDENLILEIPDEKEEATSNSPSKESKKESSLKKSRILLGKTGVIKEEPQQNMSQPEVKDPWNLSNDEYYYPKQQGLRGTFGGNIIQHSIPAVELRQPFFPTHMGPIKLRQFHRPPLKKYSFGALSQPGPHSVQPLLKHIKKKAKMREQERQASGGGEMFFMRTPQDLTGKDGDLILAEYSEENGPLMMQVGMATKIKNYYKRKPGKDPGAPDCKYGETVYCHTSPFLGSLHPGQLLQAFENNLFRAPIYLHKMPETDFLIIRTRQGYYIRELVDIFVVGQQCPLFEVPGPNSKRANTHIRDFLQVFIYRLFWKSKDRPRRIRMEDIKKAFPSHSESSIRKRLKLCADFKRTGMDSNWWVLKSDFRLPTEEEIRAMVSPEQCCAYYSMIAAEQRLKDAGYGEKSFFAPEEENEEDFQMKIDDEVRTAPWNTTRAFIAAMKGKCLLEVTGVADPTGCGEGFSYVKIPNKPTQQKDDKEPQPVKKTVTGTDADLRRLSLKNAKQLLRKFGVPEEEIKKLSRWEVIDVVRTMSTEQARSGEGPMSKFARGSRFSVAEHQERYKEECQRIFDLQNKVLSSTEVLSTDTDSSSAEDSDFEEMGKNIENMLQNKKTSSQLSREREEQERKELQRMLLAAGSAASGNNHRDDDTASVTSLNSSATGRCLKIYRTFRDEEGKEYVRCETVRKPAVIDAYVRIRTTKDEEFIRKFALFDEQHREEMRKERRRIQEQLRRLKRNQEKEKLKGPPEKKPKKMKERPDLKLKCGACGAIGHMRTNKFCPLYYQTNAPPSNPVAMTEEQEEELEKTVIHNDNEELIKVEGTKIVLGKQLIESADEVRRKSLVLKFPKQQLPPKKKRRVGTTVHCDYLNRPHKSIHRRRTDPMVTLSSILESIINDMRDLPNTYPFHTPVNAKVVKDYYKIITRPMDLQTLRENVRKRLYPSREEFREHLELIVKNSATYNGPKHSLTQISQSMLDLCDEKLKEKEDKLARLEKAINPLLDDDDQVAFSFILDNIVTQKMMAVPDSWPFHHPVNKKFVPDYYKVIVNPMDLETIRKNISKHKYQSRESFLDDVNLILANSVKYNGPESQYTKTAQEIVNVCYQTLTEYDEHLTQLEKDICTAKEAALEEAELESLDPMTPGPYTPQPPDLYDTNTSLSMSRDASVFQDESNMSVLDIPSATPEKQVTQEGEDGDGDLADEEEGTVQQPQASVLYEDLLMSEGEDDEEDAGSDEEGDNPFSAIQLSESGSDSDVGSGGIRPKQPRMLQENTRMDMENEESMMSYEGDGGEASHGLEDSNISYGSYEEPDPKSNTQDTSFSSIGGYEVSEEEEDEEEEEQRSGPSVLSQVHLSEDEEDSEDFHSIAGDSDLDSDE

[6] = target: Bromodomain-containing protein 3 (Homo sapiens) (UniProt Q15059); settings: Compound concentration 10.0 uM, Protein concentration 2.0 uM
Sequence of Bromodomain-containing protein 3 (Homo sapiens) (Q15059 2-726 limits assumed): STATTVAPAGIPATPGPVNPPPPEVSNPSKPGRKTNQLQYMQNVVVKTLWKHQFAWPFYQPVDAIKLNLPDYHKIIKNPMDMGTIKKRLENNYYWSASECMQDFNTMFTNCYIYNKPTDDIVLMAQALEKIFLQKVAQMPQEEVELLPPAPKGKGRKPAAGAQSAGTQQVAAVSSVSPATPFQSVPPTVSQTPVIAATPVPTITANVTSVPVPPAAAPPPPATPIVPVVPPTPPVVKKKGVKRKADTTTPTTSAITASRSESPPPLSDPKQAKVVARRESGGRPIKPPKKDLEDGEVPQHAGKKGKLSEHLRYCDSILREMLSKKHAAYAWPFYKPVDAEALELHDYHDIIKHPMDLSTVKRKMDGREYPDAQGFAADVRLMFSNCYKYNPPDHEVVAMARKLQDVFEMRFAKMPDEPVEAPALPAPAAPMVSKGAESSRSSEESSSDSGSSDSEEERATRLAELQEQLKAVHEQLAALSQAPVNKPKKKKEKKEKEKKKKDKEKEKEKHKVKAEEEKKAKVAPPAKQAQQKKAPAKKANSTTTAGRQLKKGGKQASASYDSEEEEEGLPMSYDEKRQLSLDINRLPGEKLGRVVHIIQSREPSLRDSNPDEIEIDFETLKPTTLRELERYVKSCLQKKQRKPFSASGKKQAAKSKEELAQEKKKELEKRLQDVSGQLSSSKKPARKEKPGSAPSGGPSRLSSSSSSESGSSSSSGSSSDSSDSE

[7] = target: SWI/SNF-related matrix-associated actin-dependent regulator of chromatin subfamily A member 2 (Homo sapiens) (UniProt P51531); settings: Compound concentration 10.0 uM, Protein concentration 2.0 uM
[8] = target: PH-interacting protein (Homo sapiens) (UniProt Q8WWQ0); settings: Compound concentration 10.0 uM, Protein concentration 2.0 uM
[9] = target: SWI/SNF-related matrix-associated actin-dependent regulator of chromatin subfamily A member 4 (Homo sapiens) (UniProt P51532); settings: Compound concentration 10.0 uM, Protein concentration 2.0 uM
[10] = target: Histone acetyltransferase KAT2B (Homo sapiens) (UniProt Q92831); settings: Compound concentration 10.0 uM, Protein concentration 2.0 uM
[11] = target: Bromodomain adjacent to zinc finger domain protein 2B (Homo sapiens) (UniProt Q9UIF8); settings: Compound concentration 10.0 uM, Protein concentration 2.0 uM
[12] = target: Bromodomain testis-specific protein (Homo sapiens) (UniProt Q58F21); settings: Compound concentration 10.0 uM, Protein concentration 2.0 uM
[13] = target: Bromodomain-containing protein 4 (Homo sapiens) (UniProt O60885); settings: Compound concentration 10.0 uM, Protein concentration 2.0 uM
[14] = target: Transcription initiation factor TFIID subunit 1 (Homo sapiens) (UniProt P21675); settings: Compound concentration 10.0 uM, Protein concentration 2.0 uM; remark: listed apart in the source
[15] = target: Peregrin (Homo sapiens) (UniProt P55201); settings: Compound concentration 10.0 uM, Protein concentration 2.0 uM
[16] = target: Bromodomain-containing protein 2 (Homo sapiens) (UniProt P25440); settings: Compound concentration 10.0 uM, Protein concentration 2.0 uM
Sequence of Bromodomain-containing protein 2 (Homo sapiens) (P25440 whole entry, looked up): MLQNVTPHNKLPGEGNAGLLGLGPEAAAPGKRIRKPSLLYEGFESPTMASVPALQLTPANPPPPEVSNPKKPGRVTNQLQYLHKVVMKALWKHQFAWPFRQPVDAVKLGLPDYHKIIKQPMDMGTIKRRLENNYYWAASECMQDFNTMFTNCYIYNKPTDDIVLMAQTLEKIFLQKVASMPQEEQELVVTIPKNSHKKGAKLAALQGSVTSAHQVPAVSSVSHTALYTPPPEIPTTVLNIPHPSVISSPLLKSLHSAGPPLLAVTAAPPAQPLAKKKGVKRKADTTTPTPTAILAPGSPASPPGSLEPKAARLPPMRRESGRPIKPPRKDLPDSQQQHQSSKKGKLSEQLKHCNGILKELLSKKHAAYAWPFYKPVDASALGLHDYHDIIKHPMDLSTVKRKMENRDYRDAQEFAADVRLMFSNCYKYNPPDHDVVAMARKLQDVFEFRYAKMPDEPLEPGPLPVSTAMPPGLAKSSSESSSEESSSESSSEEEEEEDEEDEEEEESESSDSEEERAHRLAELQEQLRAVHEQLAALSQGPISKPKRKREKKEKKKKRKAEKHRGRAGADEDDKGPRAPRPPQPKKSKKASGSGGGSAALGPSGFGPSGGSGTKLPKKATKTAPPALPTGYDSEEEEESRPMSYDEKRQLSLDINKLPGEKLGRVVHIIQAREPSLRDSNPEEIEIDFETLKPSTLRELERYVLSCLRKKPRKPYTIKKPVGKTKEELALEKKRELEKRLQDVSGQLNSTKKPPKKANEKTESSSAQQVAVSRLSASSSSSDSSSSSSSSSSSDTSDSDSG

[17] = target: Peregrin (Homo sapiens, UniProt P55201); assay: Alphascreen assay. Binding to BRPF1B (domain start/stop: M626-G740) by alphascreen assay
[18] = target: T1, Chromatin remodeling regulator CECR2 (Homo sapiens, UniProt Q9BXF3); assay: Alphascreen assay. Binding to CECR2A (domain start/stop: P420-H538) by alphascreen assay
[19] = target: Protein polybromo-1 (Homo sapiens) (UniProt Q86U86); settings: Compound concentration 10.0 uM, Protein concentration 2.0 uM; remark: listed apart in the source
[20] = target: Bromodomain adjacent to zinc finger domain protein 1A (Homo sapiens) (UniProt Q9NRL2); settings: Compound concentration 10.0 uM, Protein concentration 2.0 uM
[21] = target: Protein polybromo-1 (Homo sapiens) (UniProt Q86U86); settings: Compound concentration 10.0 uM, Protein concentration 2.0 uM; remark: listed apart in the source
[22] = target: Bromodomain adjacent to zinc finger domain protein 2A (Homo sapiens) (UniProt Q9UIF9); settings: Compound concentration 10.0 uM, Protein concentration 2.0 uM
[23] = target: Protein polybromo-1 (Homo sapiens) (UniProt Q86U86); settings: Compound concentration 10.0 uM, Protein concentration 2.0 uM; remark: listed apart in the source
[24] = target: Bromodomain-containing protein 9 (Homo sapiens) (UniProt Q9H8M2); settings: Compound concentration 10.0 uM, Protein concentration 2.0 uM
[25] = target: Transcription intermediary factor 1-beta (Homo sapiens) (UniProt Q13263); settings: Compound concentration 10.0 uM, Protein concentration 2.0 uM
[26] = target: Transcription intermediary factor 1-alpha (Homo sapiens) (UniProt O15164); settings: Compound concentration 10.0 uM, Protein concentration 2.0 uM
[27] = target: T1, Chromatin remodeling regulator CECR2; settings: Compound concentration 10.0 uM, Protein concentration 2.0 uM
[28] = target: Bromodomain-containing protein 7 (Homo sapiens) (UniProt Q9NPI1); settings: Compound concentration 10.0 uM, Protein concentration 2.0 uM
[29] = target: T2, Nucleosome-remodeling factor subunit BPTF (Homo sapiens, UniProt Q12830); settings: Compound concentration 10.0 uM, Protein concentration 2.0 uM
[30] = target: Nuclear body protein SP140 (Homo sapiens) (UniProt Q13342); settings: Compound concentration 10.0 uM, Protein concentration 2.0 uM
[31] = target: Bromodomain and WD repeat-containing protein 1 (Homo sapiens) (UniProt Q9NSI6); settings: Compound concentration 10.0 uM, Protein concentration 2.0 uM
[32] = target: Tyrosine-protein kinase BAZ1B (Homo sapiens) (UniProt Q9UIG0); settings: Compound concentration 10.0 uM, Protein concentration 2.0 uM
[33] = target: Bromodomain-containing protein 1 (Homo sapiens) (UniProt O95696); settings: Compound concentration 10.0 uM, Protein concentration 2.0 uM
[34] = target: T2, Nucleosome-remodeling factor subunit BPTF; assay: Alphascreen assay. Binding to FALZA (domain start/stop: S2791-H2911) by alphascreen assay
[35] = target: Nuclear body protein SP140-like protein (Homo sapiens) (UniProt Q9H930); settings: Compound concentration 10.0 uM, Protein concentration 2.0 uM
[36] = target: ATPase family AAA domain-containing protein 2B (Homo sapiens) (UniProt Q9ULI0); settings: Compound concentration 10.0 uM, Protein concentration 2.0 uM
[37] = target: Peregrin (Homo sapiens) (UniProt P55201); settings: Compound concentration 10.0 uM, Protein concentration 2.0 uM; remark: listed apart in the source
[38] = target: Transcription initiation factor TFIID subunit 1-like (Homo sapiens) (UniProt Q8IZX4); settings: Compound concentration 10.0 uM, Protein concentration 2.0 uM; remark: listed apart in the source
[39] = target: Histone acetyltransferase p300 (Homo sapiens) (UniProt Q09472); settings: Compound concentration 10.0 uM, Protein concentration 2.0 uM
[40] = target: Protein polybromo-1 (Homo sapiens) (UniProt Q86U86); settings: Compound concentration 10.0 uM, Protein concentration 2.0 uM; remark: listed apart in the source
[41] = target: Bromodomain-containing protein 3 (Homo sapiens) (UniProt Q15059); settings: Compound concentration 10.0 uM, Protein concentration 2.0 uM; remark: listed apart in the source
[42] = target: Histone acetyltransferase KAT2A (Homo sapiens) (UniProt Q92830); settings: Compound concentration 10.0 uM, Protein concentration 2.0 uM
[43] = target: T1, Chromatin remodeling regulator CECR2; assay: Alphascreen assay. Binding to CECR2A (domain start/stop: P420-D543) by alphascreen assay
[44] = target: Bromodomain and PHD finger-containing protein 3 (Homo sapiens) (UniProt Q9ULD4); settings: Compound concentration 10.0 uM, Protein concentration 2.0 uM
[45] = target: CREB-binding protein (Homo sapiens) (UniProt Q92793); settings: Compound concentration 10.0 uM, Protein concentration 2.0 uM
[46] = target: ATPase family AAA domain-containing protein 2 (Homo sapiens) (UniProt Q6PL18); settings: Compound concentration 10.0 uM, Protein concentration 2.0 uM
[47] = target: Bromodomain-containing protein 2 (Homo sapiens) (UniProt P25440); settings: Compound concentration 10.0 uM, Protein concentration 2.0 uM; remark: listed apart in the source
[48] = target: Bromodomain testis-specific protein (Homo sapiens) (UniProt Q58F21); settings: Compound concentration 10.0 uM, Protein concentration 2.0 uM; remark: listed apart in the source
[49] = target: Protein polybromo-1 (Homo sapiens) (UniProt Q86U86); settings: Compound concentration 10.0 uM, Protein concentration 2.0 uM; remark: listed apart in the source
[50] = target: Bromodomain and WD repeat-containing protein 3 (Homo sapiens) (UniProt Q6RI45); settings: Compound concentration 10.0 uM, Protein concentration 2.0 uM

CCCS(=O)(=O)c1nc(NC2CC2)cc(-c2ccc3c(ccn3C3CC(C)(C)NC(C)(C)C3)c2)n1
ΔTm [1]: 0.08 °C | ΔTm [2]: 1.56 °C | ΔTm [3]: 0.48 °C | ΔTm [4]: 0.63 °C | ΔTm [5]: 1.25 °C | ΔTm [6]: 0.37 °C | ΔTm [7]: 0.87 °C | ΔTm [8]: -0.17 °C | ΔTm [9]: 1.26 °C | ΔTm [10]: 0.62 °C | ΔTm [11]: 0.4 °C | ΔTm [12]: -0.15 °C | ΔTm [13]: 1.85 °C | ΔTm [14]: 1.09 °C | ΔTm [15]: 0.38 °C | ΔTm [16]: 0.54 °C | IC50 [17]: 4.4 µM | IC50 [18]: 0.0193 µM | ΔTm [19]: 0.34 °C | ΔTm [20]: -0.77 °C | ΔTm [21]: 0.51 °C | ΔTm [22]: 0.14 °C | ΔTm [23]: 0.88 °C | ΔTm [24]: 0.96 °C | ΔTm [25]: 1.37 °C | ΔTm [26]: 1.38 °C | ΔTm [27]: 12.6 °C | ΔTm [28]: 1.3 °C | ΔTm [29]: 1.67 °C | ΔTm [30]: 0.58 °C | ΔTm [31]: 1.71 °C | ΔTm [32]: -0.35 °C | ΔTm [33]: 0.34 °C | IC50 [34]: 1.46 µM | ΔTm [35]: 0.62 °C | ΔTm [36]: 0.82 °C | ΔTm [37]: 0.16 °C | ΔTm [38]: 0.73 °C | ΔTm [39]: 0.85 °C | ΔTm [40]: -0.21 °C | ΔTm [41]: 0.35 °C | ΔTm [42]: 1.2 °C | IC50 [43]: 0.0375 µM | ΔTm [44]: 0.48 °C | ΔTm [45]: 0.36 °C | ΔTm [46]: 1.07 °C | ΔTm [47]: 0.39 °C | ΔTm [48]: 0.51 °C | ΔTm [49]: 0.48 °C | ΔTm [50]: -0.86 °C
